≈ marks a conversion by molar mass, not a printed value.
How the values were obtained:
E. coli HB4 KPC-3 = assay: MIC of recombinant strains; assay type: cell-based; conditions: Escherichia coli, HB4KPC3; E. coli HB4 expressing KPC-3 in pUCP24
Description: (§1) 14.0 (www.eucast.org/clinical_breakpoints).
(§2) Recombinant strains were selected in 10 mg/L of gentamicin-LB agar plates. The β-lactam MICs were determined for the transformants according to the above-described methodology.

E. coli HB4 KPC-2 L169T = assay: MIC of recombinant strains; assay type: cell-based; conditions: Escherichia coli, HB4KPC2L169T; E. coli HB4 expressing KPC-2 L169T in pUCP24
Description: as §1, §2

E. coli HB4 KPC-2 = assay: MIC of recombinant strains; assay type: cell-based; conditions: Escherichia coli, HB4KPC2; E. coli HB4 expressing KPC-2 in pUCP24
Description: as §1, §2

E. coli HB4 = assay: MIC of recombinant strains; assay type: cell-based; conditions: Escherichia coli; E. coli HB4 (OmpC- and OmpF-deficient), no KPC
Description: as §1, §2

[1] = system: E. coli HB4 KPC-31 (KPC-3 D179Y); assay: MIC of recombinant strains; assay type: cell-based; conditions: Escherichia coli; E. coli HB4 expressing KPC-31 (KPC-3 D179Y) in pUCP24
Description: as §1, §2

E. coli HB4 KPC-2 L169A = assay: MIC of recombinant strains; assay type: cell-based; conditions: Escherichia coli, HB4KPC2L169A; E. coli HB4 expressing KPC-2 L169A in pUCP24
Description: as §1, §2

[2] = system: E. coli HB4 KPC-35 (KPC-2 L169P); assay: MIC of recombinant strains; assay type: cell-based; conditions: Escherichia coli; E. coli HB4 expressing KPC-35 (KPC-2 L169P) in pUCP24
Description: as §1, §2

E. coli HB4 KPC-3 D179N = assay: MIC of recombinant strains; assay type: cell-based; conditions: Escherichia coli, HB4KPC3D179N; E. coli HB4 expressing KPC-3 D179N in pUCP24
Description: as §1, §2

[3] = system: ST258/KPC-35 mutant IMI 1.1; assay: MIC, broth microdilution; assay type: cell-based; conditions: Klebsiella pneumoniae
[4] = system: K. pneumoniae ST512/KPC-31 (KPC-3 D179Y) parental clinical isolate; assay: MIC, broth microdilution; assay type: cell-based; conditions: Klebsiella pneumoniae
[5] = system: ST512/KPC-31 mutant IMI 1.2; assay: MIC, broth microdilution; assay type: cell-based; conditions: Klebsiella pneumoniae
[6] = system: ST258/KPC-35 mutant IMI 3.1; assay: MIC, broth microdilution; assay type: cell-based; conditions: Klebsiella pneumoniae
[7] = system: K. pneumoniae ST258/KPC-35 (KPC-2 L169P) parental clinical isolate; assay: MIC, broth microdilution; assay type: cell-based; conditions: Klebsiella pneumoniae
[8] = system: ST512/KPC-31 mutant IMI 2.1; assay: MIC, broth microdilution; assay type: cell-based; conditions: Klebsiella pneumoniae
[9] = system: K. pneumoniae ST258/KPC-35; assay: In vitro resistance dynamics (stepwise, 7 days); assay type: cell-based, Klebsiella pneumoniae; conditions: stepwise resistance development, MH broth, up to 64× MIC
KPC-2 L169A = target: T1, KPC-2 L169A (Klebsiella pneumoniae, UniProt Q9F663, L168A); assay: Specific β-lactamase activity against imipenem, crude extract; assay type: biochemical; conditions: hydrolysis of imipenem by KPC-2 L169A crude extract, 297 nm
T1 construct: made in house; host or cells: E. coli HB4 (porin-deficient), plasmid pUCP24
Description: (§3) Cultures were centrifuged at 3,500 × g, 15 min at 4°C, resuspended in 10 mL of phosphate-buffered saline (PBS; pH ~7.4) and sonicated with Ultraschall Prozessor UP 200S Hielscher (Teltow, Germany).

KPC-2 = target: T2, KPC-2 (Klebsiella pneumoniae, UniProt Q9F663); assay: as above; assay type: biochemical; conditions: hydrolysis of imipenem by KPC-2 crude extract, 297 nm
T2 construct: made in house; host or cells: E. coli HB4 (porin-deficient), plasmid pUCP24
Description: as §3

KPC-3 = target: T3, KPC-3 (Klebsiella pneumoniae, UniProt Q9F663, H272Y); assay: as above; assay type: biochemical; conditions: hydrolysis of imipenem by KPC-3 crude extract, 297 nm
T3 construct: made in house; host or cells: E. coli HB4 (porin-deficient), plasmid pUCP24
Description: as §3

KPC-2 L169T = target: T4, KPC-2 L169T (Klebsiella pneumoniae, UniProt Q9F663, L168T); assay: as above; assay type: biochemical; conditions: hydrolysis of imipenem by KPC-2 L169T crude extract, 297 nm
T4 construct: made in house; host or cells: E. coli HB4 (porin-deficient), plasmid pUCP24
Description: as §3

KPC-3 D179N = target: T5, KPC-3 D179N (Klebsiella pneumoniae, UniProt Q9F663, D178N/H272Y); assay: as above; assay type: biochemical; conditions: hydrolysis of imipenem by KPC-3 D179N crude extract, 297 nm
T5 construct: made in house; host or cells: E. coli HB4 (porin-deficient), plasmid pUCP24
Description: as §3

[10] = system: ST512/KPC-31 mutant IMI 3.2; assay: MIC, broth microdilution; assay type: cell-based; conditions: Klebsiella pneumoniae
[11] = system: ST512/KPC-31 mutant IMI 2.2; assay: MIC, broth microdilution; assay type: cell-based; conditions: Klebsiella pneumoniae
[12] = system: ST258/KPC-35 mutant IMI 1.2; assay: MIC, broth microdilution; assay type: cell-based; conditions: Klebsiella pneumoniae
[13] = system: ST512/KPC-31 mutant IMI 3.1; assay: MIC, broth microdilution; assay type: cell-based; conditions: Klebsiella pneumoniae
[14] = system: K. pneumoniae ST258/KPC-35 (KPC-2 L169P); assay: Single-step mutant frequencies and mutant prevention concentrations; assay type: cell-based, Klebsiella pneumoniae; conditions: for Imipenem mutant frequency: MH agar, 48 h
Description: (§4) The plates were incubated for 48 h at 37°C before the frequency of resistance emergence was calculated as the ratio of the number of colony forming units (CFUs) grown on the antibiotic-containing plate and the number of CFUs on antibiotic-free plates. Mutant prevention concentrations were defined as the lowest concentration of antibiotic combination for which there were zero colonies on all agar plates ([23]). All determinations were conducted in triplicate.

[15] = system: K. pneumoniae ST512/KPC-31 (KPC-3 D179Y); assay: as above; assay type: cell-based, Klebsiella pneumoniae; conditions: for Imipenem mutant frequency: MH agar, 48 h
Description: as §4

[16] = system: ST258/KPC-35 mutant IMI 3.2; assay: MIC, broth microdilution; assay type: cell-based; conditions: Klebsiella pneumoniae
[17] = system: ST258/KPC-35 mutant IMI 2.1; assay: MIC, broth microdilution; assay type: cell-based; conditions: Klebsiella pneumoniae
[18] = system: ST258/KPC-35 mutant IMI 2.2; assay: MIC, broth microdilution; assay type: cell-based; conditions: Klebsiella pneumoniae
[19] = system: K. pneumoniae ST512/KPC-31; assay: In vitro resistance dynamics (stepwise, 7 days); assay type: cell-based, Klebsiella pneumoniae; conditions: stepwise resistance development, MH broth, up to 64× MIC
[20] = system: ST512/KPC-31 mutant IMI 1.1; assay: MIC, broth microdilution; assay type: cell-based; conditions: Klebsiella pneumoniae
[21] = fold higher than the MIC of the parental strain
[22] = relebactam fixed at 4 mg/L in the combination

C[C@@H](O)[C@H]1C(=O)N2C(C(=O)O)=C(SCCN=CN)C[C@H]12 [IMI, imipenem]
MIC (E. coli HB4 KPC-3): 16 µg/mL
MIC (E. coli HB4 KPC-2 L169T): 16 µg/mL
MIC (E. coli HB4 KPC-2): 32 µg/mL
MIC (E. coli HB4): 0.125 µg/mL
MIC [1]: 0.25 µg/mL
MIC (E. coli HB4 KPC-2 L169A): 8 µg/mL
MIC [2]: 0.25 µg/mL
MIC (E. coli HB4 KPC-3 D179N): 0.25 µg/mL
MIC [3]: 256 µg/mL (≈ 855 µM)
MIC [4]: 0.125 µg/mL (≈ 0.418 µM)
MIC [5]: > 256 µg/mL
MIC [6]: 128 µg/mL (≈ 428 µM)
MIC [7]: 0.5 µg/mL (≈ 1.67 µM)
MIC [8]: > 256 µg/mL
Day on which 64× MIC values were reached [9]: 3 days
Specific activity (KPC-2 L169A): 0.1 µmol/min/mg
Specific activity (KPC-2): 0.55 µmol/min/mg
Specific activity (KPC-3): 2.5 µmol/min/mg
Specific activity (KPC-2 L169T): 0.13 µmol/min/mg
Specific activity (KPC-3 D179N): 0.02 µmol/min/mg
MIC [10]: 32 µg/mL (≈ 107 µM)
MIC [11]: > 256 µg/mL
MIC [12]: 256 µg/mL (≈ 855 µM)
MIC [13]: 32 µg/mL (≈ 107 µM)
Mutant prevention concentration relative to baseline MIC [14, 21]: 16 fold
Imipenem mutant frequency ([14]; imipenem concentration 2 mg/L): 8.22×10^−9
Imipenem mutant frequency ([14]; imipenem concentration 4 mg/L): 5.08×10^−10
Imipenem mutant frequency ([14]; imipenem concentration 8 mg/L): ≤ 1.69×10^−11
Mutant prevention concentration [14, 22]: 8 mg/L
Mutant prevention concentration relative to baseline MIC [15, 21]: 64 fold
Imipenem mutant frequency ([15]; imipenem concentration 2 mg/L): 1.29×10^−8
Imipenem mutant frequency ([15]; imipenem concentration 4 mg/L): 6.10×10^−10
Imipenem mutant frequency ([15]; imipenem concentration 8 mg/L): ≤ 2.44×10^−11
Mutant prevention concentration [15, 22]: 8 mg/L
MIC [16]: 128 µg/mL (≈ 428 µM)
MIC [17]: > 256 µg/mL
MIC [18]: > 256 µg/mL
Day on which 64× MIC values were reached [19]: 5 days
MIC [20]: > 256 µg/mL
